Data from patent publication US20250041277A1, “METHODS AND DOSING REGIMENS COMPRISING A CDK2 INHIBITOR AND A CDK4 INHIBITOR FOR TREATING CANCER” (PFIZER INC., priority 2021, published 2025).
Marks after values point to notes of the source that are not given here.

Experiments:
T47D breast cancer model = experiment: In vivo efficacy, HR+/HER2− T47D breast cancer model (Example 3); set-up: species or system NSG mice; conditions: Day 41, PO BID: PF-07104091 150 mpk, PF-07220060 60 mpk, palbociclib 10 mpk
Experimental: (§1) Female NSG mice (Jackson Lab) were subcutaneously implanted with fragment (27 mm^3 to 64 mm^3 size) into the dorsal region. All mice for T47D, HCC1428 and ST941 PBR studies were supplemented with 8.5 μg/mL estradiol water (β-Estradiol Sigma-Aldrich, cat #E2758-5G) and gave ad libitum till end of study. For the in vivo efficacy studies, tumor volume and body weights were measured twice a week. Tumor volume was calculated using the [(Length×Width×Width)/2)] formula. TGI was calculated as 100*(1−ΔT/ΔC). The ΔC (ΔT) was obtained by subtracting the mean tumor burden in the vehicle (treated) group on the first day of treatment (Day 0) from the mean tumor burden in vehicle (treated) group on the assessment day. Statistical analysis was performed using ANCOVA when the mean tumor volume in vehicle treated mice reached tumor cutoff size.
(§2) The T47D model was established by implanting passage 3 tumor fragments into recipient mice. To establish the T47D donor mice, tumor cells (5×10^6 cell/mouse with 50% Cultrex® Basement Membrane Matrix) were subcutaneously implanted in female NSG mice. Once reaching a range of 700 to 800 mm^3, donor tumors were subsequently transplanted into secondary recipient mice for a study expansion. […] PF-07104091 (lot 016), PF-07220060 (lot 019) and PD-0332991 (lot GR08498) were administered (PO.) BID (7 hr apart). All mice received treatment continuously until Day 41. TGI was assessed on Day 41 post first dose.

[1] = system: HCC1428 breast cancer model; experiment: In vivo efficacy, HR+/HER2− HCC1428 breast cancer model (Example 3); set-up: species or system NSG mice; conditions: HCC1428, Day 42; PO BID: PF-07104091 150 mpk, PF-07220060 60 mpk, palbociclib 10 mpk
Experimental: as §1
as §2, with “The HCC1428” for “The T47D”, “passage 4” for “passage 3”, “the HCC1428” for “the T47D”, “Day 42.” for “Day 41.”, “Day 42” for “Day 41”

ST941 PBR PDX model [2] = experiment: In vivo efficacy, palbociclib-resistant ST941 PBR PDX model (Example 3); set-up: species or system NSG mice; conditions: ST941PBR, Day 28; PO BID: PF-07104091 150 mpk, PF-07220060 60 mpk, palbociclib 10 mpk; fulvestrant 10 mpk SC 2x week 1 then weekly
Experimental: as §1
(§3) We established model in house by continuous treatment of the ST941 PBR tumor bearing mice with PD-0332991 at 50 mg/kg, PO QD plus fulvestrant at 10 mg/kg, SC twice in the first week, then weekly thereafter. To propagate donors for the TGI study, tumors were transplanted to recipient mice. One week after the re-implantation, the recipient mice received continuous treatment with palbociclib plus fulvestrant (dosing schedule described above). After 1 to 2 serial in vivo propagation with the same treatment regimen, the resistant tumors in the range of 700 to 800 mm^3 were re-implanted for a study expansion. The remaining tumor fragments were viably frozen for future use.
The live donor mice were established by implanting ST941 PBR (p11) tumor fragments. Once reaching a range of 700 to 800 mm^3, the donor tumors were subsequently transplanted into secondary recipient mice for a study expansion. To maintain the resistant clones, the ST941 PBR tumor bearing mice were treated with PD-0332991 at 50 mg/kg, PO. QD plus fulvestrant at 10 mg/kg, SC twice in the first week, then weekly afterwards for 10 weeks. The treatment was initiated one week after the implant until day of randomization for study enrollment. […] TGI was assessed on Day 28 post first dose.

[3] = system: NCI-H1792 lung adenocarcinoma (LUAD) cells; experiment: Spheroid growth inhibition (SGI) assay, NCI-H1792; assay type: cell-based; conditions: NCI-H1792 spheroids; 30 nM palbociclib, 300 nM PF-07220060, 300 nM PF-07104091; 14 days
Experimental: (§4) NCI-H1792 and NCI-H23 lung adenocarcinoma (LUAD) cells lines were obtained from ATCC and maintained in RPMI 1640 medium supplemented with 10% fetal bovine serum and penicillin-streptomycin as per ATCC guidelines. Cells were maintained in humidified incubator at 37° C. with 5% CO2.
(§5) Spheroid assays were performed in 96 well ultralow attachment plates (ULA-96U) from Nexcelom & Thermo Fisher Scientific. […] To aid spheroid formation, dispensed cells were centrifuged at 220×g for 6 minutes in the ultralow attachment plates and allowed to form compact spheroids for 4 days prior to the initiation of treatment. […] DMSO (0.01%) was used as the vehicle control. DMSO and all compounds were diluted in cell medium. Medium and compounds were replenished twice per week, with 3 and 4-day intervals. Replenishment was executed by aspirating 150 μL of medium per well without disturbing the spheroid and then adding the same volume of premixed medium/compound solution to spheroids. Spheroid diameter was quantified immediately following each medium change twice a week (on every 3rd or 4th day) throughout the duration of the assay.
(§6) Average diameters of tumor spheroids were plotted in GraphPad Prism 8 and the AUC calculated. AUC baseline was determined by the average tumor spheroid diameter at Day 0 in the vehicle (DMSO) controls. Spheroid growth inhibition, or SGI, was calculated as follows: SGI=(1−AUC treatment/AUC DMSO)×100%. SGI for all treatment arms was derived at the timepoint when the vehicle (DMSO) treated spheroids reach their maximal diameter (usually close to 1 mm but this can differ among cell lines); this corresponds to the last time point taken for the vehicle (DMSO) treated spheroids. SEM was calculated based on n=10 to 12 wells per test group.
(§7) Growth of lung adenocarcinoma multicellular tumor spheroids (MCTS) was monitored over time to assess: (i) amplitude of response (SGI) and (ii) duration of response to the CDK4 inhibitor PF-07220060 as a single agent, and in combination with the CDK2 inhibitor PF-07104091.

[4] = system: NCI-H23 lung adenocarcinoma (LUAD) cells; experiment: Spheroid growth inhibition (SGI) assay, NCI-H23; assay type: cell-based; conditions: NCI-H23 spheroids; 30 nM palbociclib, 300 nM PF-07220060, 300 nM PF-07104091; 14 days
Experimental: as §4, §5, §6, §7

ST941 PBR PDX model [5] = experiment: In vivo efficacy, palbociclib-resistant ST941 PBR PDX model (Example 4); set-up: species or system NSG mice; conditions: ST941PBR, Day 28, PO BID: PF-07104091 120 mpk, PF-07220060 60 mpk, PF-06873600 30 mpk, palbociclib 10 mpk, fulvestrant 10 mpk SC
Experimental: as §1, with “HCC1428, MCF7” for “T47D, HCC1428”
as §3
The live donor mice were established by implanting ST941 PBR (p13) tumor fragments. Once reaching a range of 700 to 800 mm^3, the donor tumors were subsequently transplanted into secondary recipient mice for a study expansion. To maintain the resistant clones, the ST941 PBR tumor bearing mice were treated with PD-0332991 at 50 mg/kg, PO. QD plus fulvestrant at 10 mg/kg, SC twice in the first week, then weekly afterwards for 10 weeks. The treatment was initiated one week after the implant until day of randomization for study enrollment. […] PF-07104091 (lot 021), PF-07220060 (lot CPo126812-01-SY-5700-01), PF-06873600 (lot 022) and PD-0332991 (lot GR08498) were administered (PO) BID (7 hr apart) while fulvestrant (lot 20160224-2) at 10 mg/kg, SC twice in the first week, then weekly afterwards. All mice received treatment continuously until Day 28. TGI was assessed on Day 28 post first dose.

MCF7 breast cancer model = experiment: In vivo efficacy, HR+/HER2− MCF7 breast cancer model (Example 4); set-up: species or system NSG mice; conditions: MCF7, Day 29; PO BID: PF-07104091 120 mpk, PF-07220060 60 mpk, PF-06873600 30 mpk, palbociclib 10 mpk; fulvestrant 10 mpk SC
Experimental: as §1, with “HCC1428, MCF7” for “T47D, HCC1428”
(§8) The MCF7 model was established by implanting donor tumor fragments into recipient mice. To establish the MCF7 donor mice, tumor cells (5×10^6 cell/mouse with 50% Cultrex® Basement Membrane Matrix) were subcutaneously implanted in female NSG mice. Once reaching a range of 700 to 800 mm^3, donor tumors were subsequently transplanted into secondary recipient mice for a study expansion. […] PF-07104091 (lot 022), PF-07220060 (lot CPo126812-01-SY-5700-01), PF-06873600 (lot 022) and PD-0332991 (lot GR08498) were administered (PO) BID (7 hr apart) while fulvestrant (lot 20160224-2) at 10 mg/kg, SC twice in the first week, then weekly afterwards. All mice received treatment continuously until Day 29. TGI was assessed on Day 29 post first dose

[6] = system: HCC1428 breast cancer model; experiment: In vivo efficacy, HR+/HER2− HCC1428 breast cancer model (Example 4); set-up: species or system NSG mice; conditions: HCC1428, Day 42; PO BID: PF-07104091 120 mpk, PF-07220060 60 mpk, PF-06873600 30 mpk, palbociclib 10 mpk; fulvestrant 10 mpk SC
Experimental: as §1, with “HCC1428, MCF7” for “T47D, HCC1428”
as §8, with “The HCC1428” for “The MCF7”, “implanting passage 1” for “implanting donor”, “the HCC1428” for “the MCF7”, “Day 42.” for “Day 29.”, “Day 42” for “Day 29”, “first dose.” for “first dose”

Row | SMILES | TGI % (T47D breast cancer model) | TGI % [1] | TGI % (ST941 PBR PDX model [2]) [%] | SGI (%) [3] [%] | SGI (%) [4] [%] | TGI % (ST941 PBR PDX model [5]) | TGI % (ST941 PBR PDX model [5]; listed as PF-0873600) [%] | TGI % (MCF7 breast cancer model) [%] | TGI % [6] [%]
1 | CC(=O)c1c(C)c2cnc(Nc3ccc(N4CCNCC4)cn3)nc2n(C2CCCC2)c1=O [palbociclib, reference compound] | 72^* % | 44^* % | 15 | 54 | 9 | – | – | – | –
2 | C[C@@]1(O)CCC[C@H]1n1c(=O)c(C(F)F)cc2cnc(NC3CCN(S(C)(=O)=O)CC3)nc21 [PF-06873600, reference compound] | – | – | – | – | – | 47^* % | 47 | 70 | 97
